Test results: US20090143279A1 (priority 2007, published 2009)
Where two headings read alike, the source gives them in different places.

Key:
[1] = test system: mitochondrial membrane potential; type: cell-based, mouse; details: for ΔΨm (composite Z-score): normalized score vs mock-treated (DMSO) wells
[2] = test system: reactive oxygen species; type: cell-based, mouse; details: for ROS (composite Z-score): normalized score vs mock-treated (DMSO) wells
[3] = test system: OXPHOS gene expression; type: cell-based, mouse; details: for GE-HTS (composite Z-score): normalized score vs mock-treated (DMSO) wells
[4] = test system: nuOXPHOS transcripts; type: cell-based, mouse; details: for nucOX (composite Z-score): normalized score vs mock-treated (DMSO) wells
[5] = test system: mtOXPHOS transcripts; type: cell-based, mouse; details: for mitoOX (composite Z-score): normalized score vs mock-treated (DMSO) wells
[6] = test system: cytochrome c; type: cell-based, mouse; details: for cyt c (composite Z-score): normalized score vs mock-treated (DMSO) wells
[7] = test system: C2C12 myotubes; details: for Viability (composite Z-score): normalized score vs mock-treated (DMSO) wells
[8] = test system: cellular dehydrogenase activity; details: for MTT (composite Z-score): normalized score vs mock-treated (DMSO) wells
[9] = composite Z-score vs DMSO, Conc 20 μM
[10] = Table 4, C2C12 myotubes, 48 h, composite Z-score
[11] = 12.18 μM, composite Z-score vs DMSO
[12] = 20 μM, composite Z-score vs DMSO
[13] = normalized composite Z-score vs mock-treated (DMSO) wells, Conc 20 μM
[14] = composite Z-score vs DMSO, Conc 10.62 μM
[15] = composite Z-score vs DMSO, Conc 8 μM

Chain of cytochrome c (P62897 whole entry): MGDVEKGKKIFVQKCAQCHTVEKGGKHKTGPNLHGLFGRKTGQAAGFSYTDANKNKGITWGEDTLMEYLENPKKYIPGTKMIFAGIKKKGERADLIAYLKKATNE

COc1cc2c(cc1OC)[C@@H]1C(=O)c3ccc4c(c3O[C@@H]1CO2)CC(C(C)C)O4 (stereo partly drawn) [beta-dihydrorotenone, reference compound]
ΔΨm ([1]; Table 4, C2C12 myotubes, 48 h, JC-1, composite Z-score): 1.079
ΔΨm [1, 9]: 1.079
ROS [2, 10]: 0.122
ROS [2, 9]: 0.122
GE-HTS [3, 9]: −0.818
nucOX [4, 9]: −0.828
mitoOX [5, 9]: −0.695
cyt c [6, 9]: −0.408
Viability [7, 10]: −0.184
Viability [7, 9]: −0.184
MTT [8, 10]: −2.771
MTT [8, 9]: −2.771

COC(=O)c1c(C)cc(O)cc1O [methyl orsellinate]
ΔΨm [1, 9]: −0.632
ROS [2, 9]: 1.212
GE-HTS [3, 9]: −1.129
nucOX [4, 9]: −1.000
mitoOX [5, 9]: −1.146
cyt c [6, 9]: 0.573
Viability [7, 9]: −0.008
MTT [8, 9]: 0.148

COC(=O)C(C)c1ccc(C(=O)c2cccs2)cc1 (stereo not shown) [suprofen methyl ester]
ΔΨm [1, 9]: 0.577
ROS [2, 9]: 0.591
GE-HTS [3, 9]: 0.139
nucOX [4, 9]: 0.216
mitoOX [5, 9]: −0.048
cyt c [6, 9]: −0.191
Viability [7, 9]: 0.611
MTT [8, 9]: −1.160

CCN(CC)CCNC(=O)c1cc(S(C)(=O)=O)ccc1OC [tiapride]
ΔΨm [1, 11]: −0.800
ΔΨm [1, 12]: 0.171
ROS [2, 11]: 0.653
ROS [2, 12]: −0.466
GE-HTS [3, 11]: 0.341
GE-HTS [3, 12]: −0.283
nucOX [4, 11]: 0.416
nucOX [4, 12]: −0.220
mitoOX [5, 11]: 0.086
mitoOX [5, 12]: −0.355
cyt c [6, 11]: 0.917
cyt c [6, 12]: −0.107
Viability [7, 11]: −1.454
Viability [7, 12]: 1.174
MTT [8, 11]: −1.563
MTT [8, 12]: −0.646

CC(C)c1ccc2c(c1O)CC[C@H]1C3=C(CC[C@]21C)C(=O)OC3 [triptophenolide]
ΔΨm (composite Z-score) ([1]; Conc 20 μM): 1.886
ROS (composite Z-score) ([2]; Conc 20 μM): −1.072
GE-HTS (composite Z-score) ([3]; Conc 20 μM): −0.110
nucOX (composite Z-score) ([4]; Conc 20 μM): 0.038
mitoOX (composite Z-score) ([5]; Conc 20 μM): −0.350
cyt c (composite Z-score) ([6]; Conc 20 μM): −0.593
Viability (composite Z-score) ([7]; Conc 20 μM): −0.599
MTT (composite Z-score) ([8]; Conc 20 μM): −1.067

CC(C)=CCC[C@](C)(O)C1CC=C(C)CC1 (stereo partly shown) [bisabolol]
ΔΨm [1, 9]: −0.234
ROS [2, 9]: 0.061
GE-HTS [3, 9]: −0.963
nucOX [4, 9]: −0.983
mitoOX [5, 9]: −0.690
cyt c [6, 9]: 0.738
Viability [7, 9]: 0.300
MTT [8, 9]: 0.031

Cc1ccc(/N=C/N(C)/C=N/c2ccc(C)cc2C)c(C)c1 [amitraz]
ΔΨm [1, 9]: −0.741
ROS [2, 9]: 0.867
GE-HTS [3, 9]: −0.526
nucOX [4, 9]: −0.299
mitoOX [5, 9]: −0.814
cyt c [6, 9]: 0.292
Viability [7, 9]: −1.025
MTT [8, 9]: −1.572

NCCC(=O)c1ccccc1N [kynuramine]
ΔΨm [1, 13]: −0.127
ROS [2, 13]: 1.180
GE-HTS [3, 13]: 0.070
nucOX [4, 13]: 0.093
mitoOX [5, 13]: 0.045
cyt c [6, 13]: 1.161
Viability [7, 13]: 0.319
MTT [8, 13]: −1.264

O[C@H]1[C@H]2c3cc4c(cc3CN3CCC(=C[C@@H]1O)[C@H]23)OCO4 [Lycorine, reference compound]
ΔΨm [1, 9]: −2.570
ROS [2, 9]: −2.639
GE-HTS [3, 9]: −1.119
nucOX [4, 9]: 1.103
mitoOX [5, 9]: −5.387
cyt c [6, 9]: −1.288
Viability [7, 9]: −2.922
MTT [8, 9]: −4.612

O=C(c1ccccc1)c1ccc2n1CCC2C(=O)O (stereo not shown) [ketorolac]
ΔΨm [1, 14]: 0.136
ΔΨm [1, 9]: −0.825
ROS [2, 14]: 0.482
ROS [2, 9]: 0.939
GE-HTS [3, 14]: 0.096
GE-HTS [3, 9]: −0.344
nucOX [4, 14]: −0.072
nucOX [4, 9]: −0.468
mitoOX [5, 14]: 0.412
mitoOX [5, 9]: −0.033
cyt c [6, 14]: 0.315
cyt c [6, 9]: −0.707
Viability [7, 14]: −0.773
Viability [7, 9]: −0.363
MTT [8, 14]: −0.563
MTT [8, 9]: −0.053

CC(=O)O[C@@H]1C[C@H]2C(C)(C)C(=O)C=C[C@]2(C)[C@H]2CC[C@]3(C)C(=CC(=O)O[C@H]3c3ccoc3)[C@@]21C [deoxygedunin]
ΔΨm [1, 9]: 1.327
ROS [2, 9]: −0.640
GE-HTS [3, 9]: −1.229
nucOX [4, 9]: −1.298
mitoOX [5, 9]: −0.808
cyt c [6, 9]: 1.083
Viability [7, 9]: −0.326
MTT [8, 9]: −0.532

COc1cc2ccc(=O)oc2cc1O [scopoletin]
ΔΨm [1]: 0.146
ΔΨm [1, 12]: −0.056
ROS [2]: −0.017
ROS [2, 12]: 0.727
GE-HTS [3]: −0.462
GE-HTS [3, 12]: 0.543
nucOX [4]: −0.513
nucOX [4, 12]: 0.746
mitoOX [5]: −0.291
mitoOX [5, 12]: 0.101
cyt c [6]: 0.501
cyt c [6, 12]: 0.928
Viability [7]: 0.413
Viability [7, 12]: 0.675
MTT [8]: 0.261
MTT [8, 12]: −0.957

COc1ccc2c(c1)C1(C)CCC(=O)CC1CC2 (stereo not shown)
ΔΨm (composite Z-score) ([1]; Conc 20 μM): −0.939
ROS (composite Z-score) ([2]; Conc 20 μM): 0.625
GE-HTS (composite Z-score) ([3]; Conc 20 μM): 0.129
nucOX (composite Z-score) ([4]; Conc 20 μM): 0.140
mitoOX (composite Z-score) ([5]; Conc 20 μM): 0.061
cyt c (composite Z-score) ([6]; Conc 20 μM): −0.239
Viability (composite Z-score) ([7]; Conc 20 μM): −1.914
MTT (composite Z-score) ([8]; Conc 20 μM): −1.993

C[C@@H]1O[C@@H](O[C@H]2[C@H](Oc3cc(O)c4c(=O)cc(-c5ccc(O)cc5)oc4c3)O[C@H](CO)[C@@H](O)[C@@H]2O)[C@H](O)[C@H](O)[C@H]1O [rhoifolin]
ΔΨm [1, 13]: −0.213
ROS [2, 13]: 0.471
GE-HTS [3, 13]: −0.838
nucOX [4, 13]: −0.774
mitoOX [5, 13]: −0.768
cyt c [6, 13]: 0.515
Viability [7, 13]: 0.089
MTT [8, 13]: −0.683

COC1=C[C@@H]2[C@@H]3Cc4ccc(OC)c(O)c4[C@]2(CCN3C)CC1=O [sinomenine]
ΔΨm [1, 9]: −0.657
ROS [2, 9]: 0.777
GE-HTS [3, 9]: −0.875
nucOX [4, 9]: −0.565
mitoOX [5, 9]: −1.253
cyt c [6, 9]: −0.117
Viability [7, 9]: −0.937
MTT [8, 9]: −1.489

CCCCN(CCCC)CCC(O)c1cc2c(Cl)cc(Cl)cc2c2cc(C(F)(F)F)ccc12 (stereo not shown) [halofantrine]
ΔΨm [1, 15]: −0.668
ROS [2, 15]: 0.012
GE-HTS [3, 15]: −0.508
nucOX [4, 15]: −0.239
mitoOX [5, 15]: −0.969
cyt c [6, 15]: −0.236
Viability [7, 15]: 0.132
MTT [8, 15]: −0.174

Oc1ncnc2[nH]ncc12 [allopurinol]
ΔΨm [1, 12]: −0.204
ROS [2, 12]: 1.448
GE-HTS [3, 12]: −0.869
nucOX [4, 12]: −0.849
mitoOX [5, 12]: −0.798
cyt c [6, 12]: −0.105
Viability [7, 12]: 0.376
MTT [8, 12]: −1.611

CC1=CC2C(C(C)C)CCC(C)(O)C2CC1 (stereo not shown) [cadin-4-en-10-ol]
ΔΨm [1, 13]: −0.297
ROS [2, 13]: 0.180
GE-HTS [3, 13]: −0.610
nucOX [4, 13]: −0.244
mitoOX [5, 13]: −1.252
cyt c [6, 13]: 0.328
Viability [7, 13]: −0.101
MTT [8, 13]: −0.041

O=C(O)CF [sodium fluoroacetate]
ΔΨm [1, 9]: −0.784
ROS [2, 9]: 0.613
GE-HTS [3, 9]: −0.009
nucOX [4, 9]: 0.206
mitoOX [5, 9]: −0.459
cyt c [6, 9]: 0.653
Viability [7, 9]: −0.906
MTT [8, 9]: −1.379

COc1ccc([C@H]2COc3cc(O)ccc3C2)c(OC)c1O [mucronulatol]
ΔΨm (composite Z-score) ([1]; Conc 20 μM): 0.006
ROS (composite Z-score) ([2]; Conc 20 μM): −0.187
GE-HTS (composite Z-score) ([3]; Conc 20 μM): −0.345
nucOX (composite Z-score) ([4]; Conc 20 μM): −0.104
mitoOX (composite Z-score) ([5]; Conc 20 μM): −0.729
cyt c (composite Z-score) ([6]; Conc 20 μM): −0.365
Viability (composite Z-score) ([7]; Conc 20 μM): 1.396
MTT (composite Z-score) ([8]; Conc 20 μM): −0.847

C[C@@H]1O[C@@H](O[C@H]2[C@H](O[C@H]3CC[C@@]4(C)[C@@H](CC[C@]5(C)[C@@H]4CC=C4[C@@H]6CC(C)(C)CC[C@]6(C(=O)O[C@@H]6O[C@H](CO[C@@H]7O[C@H](CO)[C@@H](O[C@@H]8O[C@@H](C)[C@H](O)[C@@H](O)[C@H]8O)[C@H](O)[C@H]7O)[C@@H](O)[C@H](O)[C@H]6O)CC[C@]45C)[C@]3(C)CO)OC[C@H](O)[C@@H]2O)[C@H](O)[C@H](O)[C@H]1O [hederacoside C]
ΔΨm (composite Z-score) ([1]; Conc 20 μM): −0.559
ROS (composite Z-score) ([2]; Conc 20 μM): 0.079
GE-HTS (composite Z-score) ([3]; Conc 20 μM): −0.809
nucOX (composite Z-score) ([4]; Conc 20 μM): −0.645
mitoOX (composite Z-score) ([5]; Conc 20 μM): −0.952
cyt c (composite Z-score) ([6]; Conc 20 μM): 0.471
Viability (composite Z-score) ([7]; Conc 20 μM): −0.672
MTT (composite Z-score) ([8]; Conc 20 μM): −1.226

C=C1CCC2C(CC2(C)C)C(=O)CCC1O (stereo not shown) [isokobusone]
ΔΨm [1, 9]: −0.283
ROS [2, 9]: −0.201
GE-HTS [3, 9]: −0.848
nucOX [4, 9]: −0.813
mitoOX [5, 9]: −0.713
cyt c [6, 9]: 0.480
Viability [7, 9]: −0.090
MTT [8, 9]: −0.507

CC(=O)Oc1cc2c(c(C)c1OC(C)=O)CC=C1[C@@]2(C)CC[C@@]2(C)C3C[C@](C)(C(=O)O)CC[C@]3(C)CC[C@]12C (stereo partly shown) [dihydrocelastryl diacetate]
ΔΨm (composite Z-score) ([1]; Conc 20 μM): −3.309
ROS (composite Z-score) ([2]; Conc 20 μM): −3.182
GE-HTS (composite Z-score) ([3]; Conc 20 μM): −1.199
nucOX (composite Z-score) ([4]; Conc 20 μM): 0.241
mitoOX (composite Z-score) ([5]; Conc 20 μM): −3.815
cyt c (composite Z-score) ([6]; Conc 20 μM): −5.617
Viability (composite Z-score) ([7]; Conc 20 μM): −4.472
MTT (composite Z-score) ([8]; Conc 20 μM): −4.098

gentamicin sulfate
ΔΨm [1, 9]: −1.213
ROS [2, 9]: 0.369
GE-HTS [3, 9]: −0.117
nucOX [4, 9]: −0.267
mitoOX [5, 9]: 0.188
cyt c [6, 9]: −0.896
Viability [7, 9]: −0.804
MTT [8, 9]: −0.150
